Results published in ChEMBL document CHEMBL6134768, “Design, synthesis, and structure-activity relationship studies of 6H-benzo[b]indeno[1,2-d]thiophen-6-one derivatives as DYRK1A/CLK1/CLK4/haspin inhibitors” (RSC Med Chem, 2025).

What was measured:
[1] = target: Dual specificity tyrosine-phosphorylation-regulated kinase 1B (Homo sapiens) (UniProt Q9Y463); assay: Inhibition of human GST-tagged DYRK1B extracted from Escherichia coli assessed as residual activity using gamma-32 ATP and KKISGRLSPIMTEQ as substrate at 1 uM by radiometric kinase assay relative to control
Sequence of Dual specificity tyrosine-phosphorylation-regulated kinase 1B (Homo sapiens) (Q9Y463 whole entry, looked up): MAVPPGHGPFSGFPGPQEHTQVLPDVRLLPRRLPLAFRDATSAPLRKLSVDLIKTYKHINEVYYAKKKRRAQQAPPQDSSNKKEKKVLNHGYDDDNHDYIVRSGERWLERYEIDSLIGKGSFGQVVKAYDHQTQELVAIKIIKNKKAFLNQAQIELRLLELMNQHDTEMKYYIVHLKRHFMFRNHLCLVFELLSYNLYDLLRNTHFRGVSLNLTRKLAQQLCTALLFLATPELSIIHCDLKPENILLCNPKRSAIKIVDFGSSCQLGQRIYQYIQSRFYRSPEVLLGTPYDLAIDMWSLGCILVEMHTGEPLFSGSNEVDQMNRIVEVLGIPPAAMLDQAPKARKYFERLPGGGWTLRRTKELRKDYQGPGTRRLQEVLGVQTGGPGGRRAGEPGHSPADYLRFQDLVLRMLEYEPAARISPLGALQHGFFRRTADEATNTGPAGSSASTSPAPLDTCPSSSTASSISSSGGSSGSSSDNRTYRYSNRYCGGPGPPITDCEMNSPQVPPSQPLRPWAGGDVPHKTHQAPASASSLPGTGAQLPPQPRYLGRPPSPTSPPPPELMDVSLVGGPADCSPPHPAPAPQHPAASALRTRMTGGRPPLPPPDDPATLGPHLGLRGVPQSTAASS

cells = conditions: Homo sapiens, U373 MG, 72 h
U-87 MG = assay: cells; conditions: Homo sapiens, 72 h
[2] = rat, microsomes
[3] = Metabolic stability in rat liver microsomes assessed as half life; format: ADME, Microsome
[4] = Metabolic stability in rat liver microsomes assessed as degradation; format: ADME, Microsome; conditions: read-out: Drug degradation
[5] = target: T1, Serine/threonine-protein kinase haspin (Homo sapiens) (UniProt Q8TF76); assay: Inhibition of GSG2 (haspin) (unknown origin) at 0.35 uM by radiometric assay relative to control
T1 sequence (whole entry): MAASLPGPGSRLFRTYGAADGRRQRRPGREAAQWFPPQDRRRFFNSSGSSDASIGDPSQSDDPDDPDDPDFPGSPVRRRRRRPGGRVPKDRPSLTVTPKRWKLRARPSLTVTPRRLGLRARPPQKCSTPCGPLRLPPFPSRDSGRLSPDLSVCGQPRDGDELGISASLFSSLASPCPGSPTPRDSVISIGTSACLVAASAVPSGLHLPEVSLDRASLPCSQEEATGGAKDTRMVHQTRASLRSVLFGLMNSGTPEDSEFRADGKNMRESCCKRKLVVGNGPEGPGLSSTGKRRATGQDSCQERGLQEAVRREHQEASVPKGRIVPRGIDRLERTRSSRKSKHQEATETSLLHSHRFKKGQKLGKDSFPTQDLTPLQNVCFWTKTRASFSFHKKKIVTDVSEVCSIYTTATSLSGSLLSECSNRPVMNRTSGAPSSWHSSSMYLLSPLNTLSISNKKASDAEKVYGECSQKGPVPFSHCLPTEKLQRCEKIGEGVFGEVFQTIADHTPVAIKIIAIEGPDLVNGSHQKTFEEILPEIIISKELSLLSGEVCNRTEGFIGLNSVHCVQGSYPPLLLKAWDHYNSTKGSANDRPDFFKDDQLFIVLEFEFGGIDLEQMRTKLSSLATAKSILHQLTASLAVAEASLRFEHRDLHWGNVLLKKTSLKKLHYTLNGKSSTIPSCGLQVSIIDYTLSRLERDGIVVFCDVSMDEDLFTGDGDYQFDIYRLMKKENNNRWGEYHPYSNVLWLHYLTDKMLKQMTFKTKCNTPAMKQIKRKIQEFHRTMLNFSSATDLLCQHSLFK

[6] = target: T2, Serine/threonine-protein kinase haspin (Homo sapiens, UniProt Q8TF76); assay: Inhibition of GSG2 (haspin) (unknown origin) by Adapta kinase activity assay relative to control
T2 sequence (Q8TF76 whole entry): T1 sequence (whole entry)

[7] = target: Cyclin-dependent kinase 5/CDK5 activator 1 (Homo sapiens) (UniProt Q00535+Q15078); assay: Inhibition of CDK5/p25 (unknown origin) at 0.35 uM by Z-LYTE kinase activity assay relative to control; format: protein-complex assay
[8] = target: SRSF protein kinase 2 (Homo sapiens) (UniProt P78362); assay: Inhibition of SRPK2 (unknown origin) at 0.35 uM by Z-LYTE kinase activity assay relative to control
Sequence of SRSF protein kinase 2 (Homo sapiens) (P78362 whole entry, looked up): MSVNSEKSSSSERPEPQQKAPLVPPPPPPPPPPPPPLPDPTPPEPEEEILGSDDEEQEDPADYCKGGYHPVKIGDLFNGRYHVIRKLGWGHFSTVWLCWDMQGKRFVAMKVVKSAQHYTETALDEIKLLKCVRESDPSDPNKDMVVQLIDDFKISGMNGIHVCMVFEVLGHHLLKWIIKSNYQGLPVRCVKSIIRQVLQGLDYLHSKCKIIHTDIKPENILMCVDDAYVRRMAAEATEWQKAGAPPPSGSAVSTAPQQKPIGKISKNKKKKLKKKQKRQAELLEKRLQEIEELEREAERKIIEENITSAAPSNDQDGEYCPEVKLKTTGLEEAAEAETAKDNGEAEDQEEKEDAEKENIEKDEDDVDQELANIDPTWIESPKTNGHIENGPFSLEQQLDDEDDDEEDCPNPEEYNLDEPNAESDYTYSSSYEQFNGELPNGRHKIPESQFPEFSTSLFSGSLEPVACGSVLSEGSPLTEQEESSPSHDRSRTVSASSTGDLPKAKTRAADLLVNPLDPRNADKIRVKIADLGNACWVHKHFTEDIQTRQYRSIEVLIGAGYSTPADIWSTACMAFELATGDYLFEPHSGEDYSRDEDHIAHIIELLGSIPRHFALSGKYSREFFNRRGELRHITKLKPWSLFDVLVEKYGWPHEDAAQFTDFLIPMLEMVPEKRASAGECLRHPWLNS

[9] = target: T2, Serine/threonine-protein kinase haspin; assay: Inhibition of GSG2 (haspin) (unknown origin) by radiometric assay relative to control
[10] = target: T3, Dual specificity protein kinase CLK4 (Homo sapiens, UniProt Q9HAZ1); assay: Inhibition of CLK4 (unknown origin) at 0.35 uM by LanthaScreen kinase binding assay relative to control
Target sequence in this assay (Q9HAZ1 whole entry, looked up): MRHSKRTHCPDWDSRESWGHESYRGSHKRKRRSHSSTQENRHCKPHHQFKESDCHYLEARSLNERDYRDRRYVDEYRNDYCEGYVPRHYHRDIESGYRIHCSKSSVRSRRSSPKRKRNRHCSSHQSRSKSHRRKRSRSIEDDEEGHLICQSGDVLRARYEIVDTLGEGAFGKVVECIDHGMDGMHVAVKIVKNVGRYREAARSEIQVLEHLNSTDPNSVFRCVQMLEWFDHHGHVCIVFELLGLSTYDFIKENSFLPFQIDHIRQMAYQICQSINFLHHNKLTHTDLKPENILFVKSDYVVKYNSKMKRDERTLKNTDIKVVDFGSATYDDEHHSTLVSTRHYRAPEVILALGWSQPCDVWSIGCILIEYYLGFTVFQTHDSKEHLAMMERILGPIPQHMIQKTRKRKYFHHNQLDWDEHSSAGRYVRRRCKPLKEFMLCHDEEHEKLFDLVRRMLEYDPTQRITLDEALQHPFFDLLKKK

[11] = target: Serine/threonine-protein kinase pim-1 (Homo sapiens) (UniProt P11309); assay: Inhibition of PIM1 (unknown origin) at 0.35 uM by Z-LYTE kinase activity assay relative to control
Sequence of Serine/threonine-protein kinase pim-1 (Homo sapiens) (P11309 whole entry, looked up): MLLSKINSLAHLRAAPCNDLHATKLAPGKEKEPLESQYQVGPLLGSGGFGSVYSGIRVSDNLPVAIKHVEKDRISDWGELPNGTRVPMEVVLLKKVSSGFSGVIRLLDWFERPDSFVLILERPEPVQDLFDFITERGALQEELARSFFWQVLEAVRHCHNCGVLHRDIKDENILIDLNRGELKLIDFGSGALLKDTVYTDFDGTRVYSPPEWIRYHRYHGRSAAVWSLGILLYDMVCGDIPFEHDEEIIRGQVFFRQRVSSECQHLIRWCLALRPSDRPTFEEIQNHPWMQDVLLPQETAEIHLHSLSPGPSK

[12] = target: T4, Dual specificity tyrosine-phosphorylation-regulated kinase 2 (Homo sapiens) (UniProt Q92630); assay: Inhibition of DYRK2 (unknown origin) at 0.35 uM by LanthaScreen kinase binding assay relative to control
T4 sequence (whole entry): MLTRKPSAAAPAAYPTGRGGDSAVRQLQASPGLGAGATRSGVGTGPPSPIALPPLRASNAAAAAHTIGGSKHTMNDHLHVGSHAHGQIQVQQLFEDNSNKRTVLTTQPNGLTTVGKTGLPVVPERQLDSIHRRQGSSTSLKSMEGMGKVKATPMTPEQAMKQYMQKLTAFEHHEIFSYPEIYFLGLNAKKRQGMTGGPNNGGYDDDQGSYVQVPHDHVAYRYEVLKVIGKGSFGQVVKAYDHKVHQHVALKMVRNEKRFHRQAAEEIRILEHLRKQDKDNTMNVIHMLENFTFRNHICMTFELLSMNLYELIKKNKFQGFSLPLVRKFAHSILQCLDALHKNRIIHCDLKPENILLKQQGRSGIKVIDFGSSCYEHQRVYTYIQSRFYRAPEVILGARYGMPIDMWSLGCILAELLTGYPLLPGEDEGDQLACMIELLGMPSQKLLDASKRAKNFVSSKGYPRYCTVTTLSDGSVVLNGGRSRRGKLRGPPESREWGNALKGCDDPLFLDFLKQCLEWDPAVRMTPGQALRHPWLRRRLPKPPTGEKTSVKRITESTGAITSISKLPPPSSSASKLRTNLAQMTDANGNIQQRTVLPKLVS

[13] = target: Serine/threonine-protein kinase 33 (Homo sapiens) (UniProt Q9BYT3); assay: Inhibition of STK33 (unknown origin) at 0.35 uM by LanthaScreen kinase binding assay relative to control
[14] = target: Dual specificity tyrosine-phosphorylation-regulated kinase 1B (Homo sapiens) (UniProt Q9Y463); assay: Inhibition of DYRK1B (unknown origin) at 0.35 uM by Z-LYTE kinase activity assay relative to control
[15] = target: SRSF protein kinase 1 (Homo sapiens) (UniProt Q96SB4); assay: Inhibition of SRPK1 (unknown origin) at 0.35 uM by Z-LYTE kinase activity assay relative to control
[16] = target: T5, Serine/threonine-protein kinase 17A (Homo sapiens) (UniProt Q9UEE5); assay: Inhibition of STK17A (DRAK1) (unknown origin) at 0.35 uM by LanthaScreen kinase binding assay relative to control
T5 sequence (whole entry): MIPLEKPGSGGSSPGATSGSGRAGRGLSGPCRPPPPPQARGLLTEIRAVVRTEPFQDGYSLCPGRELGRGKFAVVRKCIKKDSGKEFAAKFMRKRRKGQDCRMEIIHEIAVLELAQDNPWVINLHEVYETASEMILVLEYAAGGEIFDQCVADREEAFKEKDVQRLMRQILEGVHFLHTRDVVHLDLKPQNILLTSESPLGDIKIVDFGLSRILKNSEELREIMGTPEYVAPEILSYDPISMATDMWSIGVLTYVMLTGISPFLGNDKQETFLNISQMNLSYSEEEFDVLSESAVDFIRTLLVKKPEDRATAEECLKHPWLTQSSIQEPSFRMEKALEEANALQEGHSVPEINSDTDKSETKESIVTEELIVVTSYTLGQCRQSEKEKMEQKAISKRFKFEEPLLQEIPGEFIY

[17] = target: T6, Dual specificity tyrosine-phosphorylation-regulated kinase 3 (Homo sapiens) (UniProt O43781); assay: Inhibition of DYRK3 (unknown origin) at 0.35 uM by Z-LYTE kinase activity assay relative to control
T6 sequence (whole entry): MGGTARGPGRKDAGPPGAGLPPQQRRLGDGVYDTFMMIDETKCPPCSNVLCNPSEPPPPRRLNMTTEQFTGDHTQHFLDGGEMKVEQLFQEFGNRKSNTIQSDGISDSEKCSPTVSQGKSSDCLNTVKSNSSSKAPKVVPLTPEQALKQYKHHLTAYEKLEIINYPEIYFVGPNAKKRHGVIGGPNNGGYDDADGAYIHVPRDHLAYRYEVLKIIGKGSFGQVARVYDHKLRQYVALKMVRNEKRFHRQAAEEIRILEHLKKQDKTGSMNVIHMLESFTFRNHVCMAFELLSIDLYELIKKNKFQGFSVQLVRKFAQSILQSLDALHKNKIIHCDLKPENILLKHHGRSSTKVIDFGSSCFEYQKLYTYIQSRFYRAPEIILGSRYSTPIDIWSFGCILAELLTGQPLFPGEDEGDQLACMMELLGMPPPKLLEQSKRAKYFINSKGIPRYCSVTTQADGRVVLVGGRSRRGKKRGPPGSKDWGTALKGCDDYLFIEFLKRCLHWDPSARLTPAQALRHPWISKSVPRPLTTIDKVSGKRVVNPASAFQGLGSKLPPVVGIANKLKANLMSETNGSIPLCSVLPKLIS

[18] = target: Homeodomain-interacting protein kinase 1 (Homo sapiens) (UniProt Q86Z02); assay: Inhibition of HIPK1 (Myak) (unknown origin) at 0.35 uM by Z-LYTE kinase activity assay relative to control
Sequence of Homeodomain-interacting protein kinase 1 (Homo sapiens) (Q86Z02 whole entry, looked up): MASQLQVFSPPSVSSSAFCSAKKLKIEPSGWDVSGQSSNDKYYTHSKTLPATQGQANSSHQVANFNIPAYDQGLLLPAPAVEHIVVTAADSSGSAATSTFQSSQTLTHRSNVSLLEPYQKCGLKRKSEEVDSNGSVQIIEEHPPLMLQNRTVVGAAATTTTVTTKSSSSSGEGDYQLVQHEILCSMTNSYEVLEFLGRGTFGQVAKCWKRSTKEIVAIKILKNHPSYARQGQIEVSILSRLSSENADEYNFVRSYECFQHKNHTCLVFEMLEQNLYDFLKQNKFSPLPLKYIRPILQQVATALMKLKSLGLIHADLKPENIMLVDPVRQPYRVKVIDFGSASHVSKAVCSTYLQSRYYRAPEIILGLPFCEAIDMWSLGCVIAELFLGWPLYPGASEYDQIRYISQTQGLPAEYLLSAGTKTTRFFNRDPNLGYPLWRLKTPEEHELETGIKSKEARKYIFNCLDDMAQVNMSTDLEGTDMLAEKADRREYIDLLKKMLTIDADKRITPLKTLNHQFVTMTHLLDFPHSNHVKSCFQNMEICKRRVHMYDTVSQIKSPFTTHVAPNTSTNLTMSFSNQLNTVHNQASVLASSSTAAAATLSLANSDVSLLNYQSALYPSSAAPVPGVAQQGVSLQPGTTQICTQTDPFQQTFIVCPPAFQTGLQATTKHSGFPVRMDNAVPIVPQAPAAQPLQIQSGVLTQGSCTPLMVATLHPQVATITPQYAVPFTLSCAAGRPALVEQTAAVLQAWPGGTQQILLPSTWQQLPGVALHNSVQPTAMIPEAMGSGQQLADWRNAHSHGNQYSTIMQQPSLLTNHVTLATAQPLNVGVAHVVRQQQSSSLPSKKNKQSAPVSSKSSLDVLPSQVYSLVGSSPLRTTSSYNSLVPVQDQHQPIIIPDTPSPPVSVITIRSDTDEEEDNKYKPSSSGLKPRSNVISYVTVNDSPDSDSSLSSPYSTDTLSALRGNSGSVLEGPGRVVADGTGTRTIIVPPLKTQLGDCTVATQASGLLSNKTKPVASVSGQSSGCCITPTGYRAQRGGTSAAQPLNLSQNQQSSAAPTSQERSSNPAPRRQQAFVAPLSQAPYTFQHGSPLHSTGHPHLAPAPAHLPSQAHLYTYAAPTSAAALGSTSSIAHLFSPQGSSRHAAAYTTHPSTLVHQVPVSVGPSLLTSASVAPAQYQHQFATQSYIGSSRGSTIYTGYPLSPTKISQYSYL

[19] = target: Dual specificity protein kinase CLK3 (Homo sapiens) (UniProt P49761); assay: Inhibition of CLK3 (unknown origin) at 0.35 uM by Z-LYTE kinase activity assay relative to control
Sequence of Dual specificity protein kinase CLK3 (Homo sapiens) (P49761 whole entry, looked up): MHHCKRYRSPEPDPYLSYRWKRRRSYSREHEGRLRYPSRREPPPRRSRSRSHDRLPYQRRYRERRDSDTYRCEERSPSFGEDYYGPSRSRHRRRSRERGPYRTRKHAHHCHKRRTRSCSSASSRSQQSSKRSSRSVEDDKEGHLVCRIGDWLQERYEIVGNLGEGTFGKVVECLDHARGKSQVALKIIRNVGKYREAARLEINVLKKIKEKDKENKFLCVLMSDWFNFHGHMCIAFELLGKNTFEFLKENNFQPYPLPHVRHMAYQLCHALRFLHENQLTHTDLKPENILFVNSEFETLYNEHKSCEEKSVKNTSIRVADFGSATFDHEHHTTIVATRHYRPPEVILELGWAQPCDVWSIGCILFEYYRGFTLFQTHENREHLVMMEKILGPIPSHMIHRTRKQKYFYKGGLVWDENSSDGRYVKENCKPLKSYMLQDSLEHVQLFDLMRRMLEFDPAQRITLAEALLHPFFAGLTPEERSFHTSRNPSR

[20] = target: Dual specificity tyrosine-phosphorylation-regulated kinase 1B (Homo sapiens) (UniProt Q9Y463); assay: Inhibition of DYRK1B (unknown origin) at 0.35 uM by radiometric assay relative to control
[21] = target: Epidermal growth factor receptor (Homo sapiens) (UniProt P00533); assay: Inhibition of EGFR (ErbB1) (unknown origin) at 0.35 uM by Z-LYTE kinase activity assay relative to control
[22] = target: T3, Dual specificity protein kinase CLK4; assay: Inhibition of CLK4 (unknown origin) at 0.35 uM by radiometric assay relative to control
Target sequence in this assay (Q9HAZ1 whole entry, looked up): as the sequence (Q9HAZ1 whole entry, looked up) above

[23] = target: Dual specificity protein kinase CLK1 (Homo sapiens) (UniProt P49759); assay: Inhibition of CLK1 (unknown origin) at 0.35 uM by radiometric assay relative to control
Sequence of Dual specificity protein kinase CLK1 (Homo sapiens) (P49759 whole entry, looked up): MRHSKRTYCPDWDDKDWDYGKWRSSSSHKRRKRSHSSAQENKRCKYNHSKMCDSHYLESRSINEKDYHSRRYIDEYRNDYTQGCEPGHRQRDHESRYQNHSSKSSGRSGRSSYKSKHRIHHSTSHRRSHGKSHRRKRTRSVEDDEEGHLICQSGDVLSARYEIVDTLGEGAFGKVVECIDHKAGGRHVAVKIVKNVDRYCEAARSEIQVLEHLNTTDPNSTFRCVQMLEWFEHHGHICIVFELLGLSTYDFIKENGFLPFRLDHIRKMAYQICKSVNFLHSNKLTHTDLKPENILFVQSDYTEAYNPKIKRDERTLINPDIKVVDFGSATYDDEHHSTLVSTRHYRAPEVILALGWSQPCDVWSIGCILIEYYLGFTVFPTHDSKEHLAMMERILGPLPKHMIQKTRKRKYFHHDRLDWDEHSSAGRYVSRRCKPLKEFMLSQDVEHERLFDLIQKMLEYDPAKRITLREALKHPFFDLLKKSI

[24] = target: T1, Serine/threonine-protein kinase haspin (Homo sapiens); assay: Inhibition of GSG2 (haspin) (unknown origin) at 0.35 uM by Adapta kinase activity assay relative to control
[25] = target: T3, Dual specificity protein kinase CLK4; assay: Inhibition of CLK4 (unknown origin) by radiometric assay relative to control
Target sequence in this assay (Q9HAZ1 whole entry): as the sequence (Q9HAZ1 whole entry, looked up) above

[26] = target: T3, Dual specificity protein kinase CLK4; assay: Inhibition of CLK4 (unknown origin) by LanthaScreen kinase binding assay relative to control
Target sequence in this assay (Q9HAZ1 whole entry): as the sequence (Q9HAZ1 whole entry, looked up) above

[27] = target: Dual specificity protein kinase CLK1 (Homo sapiens) (UniProt P49759); assay: Inhibition of CLK1 (unknown origin) at 0.35 uM by Z-LYTE kinase activity assay relative to control
[28] = target: BDNF/NT-3 growth factors receptor (Homo sapiens) (UniProt Q16620); assay: Inhibition of NTRK2 (TRKB) (unknown origin) at 0.35 uM by Z-LYTE kinase activity assay relative to control
[29] = target: Myosin light chain kinase 2, skeletal/cardiac muscle (Homo sapiens) (UniProt Q9H1R3); assay: Inhibition of MLCK2 (unknown origin) at 0.35 uM by LanthaScreen kinase binding assay relative to control

## O=C1c2ccccc2-c2c1sc1ccc(O)cc21
[1]; INHIBITOR
  Activity: < 5%
cells
  IC50: > 100000 nM
U-87 MG
  IC50: > 100000 nM

## COc1ccc2c(c1)-c1c(sc3ccc(OC)cc13)C2=O
[1]; INHIBITOR
  Activity: < 5%
[2]
  CLH: 92.4 µL/min/mg

## COc1ccc2c(c1)C(=O)c1sc3ccc(F)cc3c1-2
[3]
  t1/2: 16.8 min
[1]
  Activity: 78%
[1]; INHIBITOR
  Activity: < 5%
[2]
  CLH: 93.9 µL/min/mg

## COc1ccc2sc3c(c2c1)-c1c(OC)cccc1C3=O
[3]
  t1/2: < 5 min
[1]
  Activity: 68%
[2]
  CLH: > 500 µL/min/mg

## COc1ccc2c(c1)C(=O)c1sc3ccccc3c1-2
[3]
  t1/2: 24.4 min
[1]; INHIBITOR
  Activity: < 5%
[2]
  CLH: 94.8 µL/min/mg

## COc1ccc2c(c1)-c1c(sc3ccc(O)cc13)C2=O
[1]
  Activity: 89%
[4]
  metabolised: 50%

## COc1ccc2sc3c(c2c1)-c1ccccc1C3=O
[1]; INHIBITOR
  Activity: 7%

## COc1ccc2c(c1)C(=O)c1sc3ccc(OC)cc3c1-2
[3]
  t1/2: 18.9 min
[1]; INHIBITOR
  Activity: < 5%
[2]
  CLH: 122 µL/min/mg

## COc1ccc2c(c1)C(=O)c1sc3ccc(O)cc3c1-2
[5]
  inhibition: 88%
[6]
  IC50: 28 nM
[7]
  inhibition: 8%
[8]
  inhibition: 0%
[9]
  IC50: 76 nM
[1]
  Activity: 93%
[10]
  inhibition: 95%
[11]
  inhibition: 0%
[12]
  inhibition: 66%
[13]
  inhibition: 8%
[14]
  inhibition: 57%
[15]
  inhibition: 6%
[16]
  inhibition: 42%
[17]
  inhibition: 5%
[18]
  inhibition: 0%
[19]
  inhibition: 7%
[20]
  inhibition: 47%
[21]
  inhibition: 0%
[22]
  inhibition: 91%
[23]
  inhibition: 93%
U-87 MG
  IC50: 45900 nM
[24]
  inhibition: 95%
[25]
  IC50: 26 nM
[26]
  IC50: 14 nM
[27]
  inhibition: 16%
[28]
  inhibition: 0%
[29]
  inhibition: 15%

## COc1cccc2c1C(=O)c1sc3ccc(O)cc3c1-2
[1]
  Activity: 78%

## COc1cccc2c1-c1c(sc3ccccc13)C2=O
[3]
  t1/2: 6.5 min
[1]; INHIBITOR
  Activity: < 5%
[2]
  CLH: 355.5 µL/min/mg

## COc1cccc2c1C(=O)c1sc3ccccc3c1-2
[3]
  t1/2: < 5 min
[1]; INHIBITOR
  Activity: < 5%
[2]
  CLH: > 500 µL/min/mg

## COc1ccc2c(c1)-c1c(sc3ccccc13)C2=O
[3]
  t1/2: 33.7 min
[1]; INHIBITOR
  Activity: < 5%
[2]
  CLH: 68.8 µL/min/mg
